Measurements reported in paper PMC9791335 (Heliyon, 2022).

Biological target: lysine-specific demethylase 1 (LSD1) (Homo sapiens, UniProt O60341)
Test: HRP-coupled fluorescence
Format: biochemical

% inhibition at 10 μM: 76.5
Structure (SMILES): COc1cc(CNC(=O)CCCCCCC(C)C)ccc1O [DHC, dihydrocapsaicin]
